Experiments:
MATIN = assay: Post-emergence herbicidal action against MATIN; type: in vivo, Matricaria inodora; details: 1280 g/ha, visual rating about 3 weeks after treatment
Method: (§1) [table] Seeds of mono- and dicotyledonous weed plants are placed in plastic pots in sandy loam soil (twin sowing with one species each of mono- or dicotyledonous weed plants per pot), covered with soil and cultivated in a greenhouse under controlled growth conditions. 2 to 3 weeks after sowing, the test plants are treated at the one-leaf stage. The compounds of the invention, formulated in the form of wettable powders (WP) or as emulsion concentrates (EC), are applied to the green parts of the plants as aqueous suspension or emulsion with addition of 0.5% additive at a water application rate equivalent to 600 litres per hectare. After the test plants have been kept in the greenhouse under optimum growth conditions for about 3 weeks, the activity of the preparations is rated visually in comparison to untreated controls. For example, 100% activity=the plants have died, 0% activity=like control plants. Tables 5.1-5.16 below show the effects of selected compounds of the general formula (I) according to Tables 1 to 3 on various harmful plants at an application rate corresponding to 1280 or 320 g/ha, which have been obtained by the aforementioned experimental method.

AMARE [1] = assay: Post-emergence herbicidal action against AMARE; type: in vivo, Amaranthus retroflexus; details: 1280 g/ha, visual rating about 3 weeks after treatment
Method: as §1

SETVI [2] = assay: Pre-emergence herbicidal action against SETVI; type: in vivo, Setaria viridis; details: 1280 g/ha, scored visually after about 3 weeks vs untreated controls
Source text: (§2) Seeds of mono- and dicotyledonous weed plants are placed in plastic pots in sandy loam soil (doubly sown with one species each of mono- or dicotyledonous weed plants per pot) and covered with soil. The compounds of the invention, formulated in the form of wettable powders (WP) or as emulsion concentrates (EC), are then applied onto the surface of the covering soil as aqueous suspension or emulsion with addition of 0.5% additive at a water application rate equivalent to 600 litres per hectare. After the treatment, the pots are placed in a greenhouse and kept under good growth conditions for the trial plants. After about 3 weeks, the effect of the preparations is scored visually in comparison with untreated controls as percentages. For example, 100% activity=the plants have died, 0% activity=like control plants. [table] Tables 4.1-4.15 below show the effects of selected compounds of the general formula (I) according to Tables 1 to 3 on various harmful plants at an application rate corresponding to 1280 or 320 g/ha, which have been obtained by the aforementioned experimental method.

ECHCG = assay: Pre-emergence herbicidal action against ECHCG; type: in vivo, Echinochloa crus-galli; details: scored visually after about 3 weeks vs untreated controls, 100% = plants have died, 0% = like control plants
Source text: as §2

STEME [3] = assay: Pre-emergence herbicidal action against STEME; type: in vivo, Stellaria media; details: 1280 g/ha, scored visually after about 3 weeks vs untreated controls
Source text: as §2

AMARE [4] = assay: Pre-emergence herbicidal action against AMARE; type: in vivo, Amaranthus retroflexus; details: 1280 g/ha, scored visually after about 3 weeks vs untreated controls
Source text: as §2

SETVI [5] = assay: Post-emergence herbicidal action against SETVI; type: in vivo, Setaria viridis; details: 1280 g/ha, post-emergence at one-leaf stage, rated visually after about 3 weeks vs untreated controls
Method: as §1

STEME [6] = assay: Post-emergence herbicidal action against STEME; type: in vivo, Stellaria media; details: 1280 g/ha, visual rating about 3 weeks after treatment
Method: as §1

Row | Compound | Post-emergence action against MATIN in % (MATIN) [%] | Post-emergence action against AMARE in % (AMARE [1]) [%] | Pre-emergence action against SETVI in % (SETVI [2]) [%] | Pre-emergence action at 1280 g/ha against ECHCG in % (ECHCG) [%] | Pre-emergence action against STEME in % (STEME [3]) [%] | Pre-emergence action against AMARE in % (AMARE [4]) [%] | Post-emergence action against SETVI in % (SETVI [5]) [%] | Post-emergence action against STEME in % (STEME [6]) [%]
1 | COC(=O)COc1nn(-c2cccc(F)c2)c(-c2ccccc2)c1Br [I-114] | 90 | 100 | 100 | 90 | 100 | 100 |  | 
2 | O=C(COc1nn(-c2ccccc2)c(-c2ccc(F)cc2)c1Br)NCC1CC1 [III-005] |  |  | 100 | 100 | 100 | 90 |  | 
3 | CCOC(=O)COc1nn(-c2ccccc2OC)c(-c2ccc(F)cc2)c1Br [I-089] |  | 100 |  |  |  |  | 100 | 
4 | COC(=O)C(C)Oc1nn(-c2ccccc2F)c(-c2ccc(F)c(F)c2)c1Br (stereo not shown) [I-170] |  | 90 | 100 |  | 100 | 100 |  | 100
5 | COC(=O)C(C)Oc1nn(-c2ccccc2)c(-c2ccc(F)cc2)c1Br (stereo not shown) [I-132, Methyl 2-{[4-bromo-5-(4-fluorophenyl)-1-phenyl-1H-pyrazol-3-yl]oxy}propanoate] | 90 |  | 100 |  | 100 | 100 |  | 100
6 | C=CCNC(=O)COc1nn(-c2ccccc2F)c(-c2ccc(F)c(F)c2)c1[N+](=O)[O-] [III-066] |  |  | 90 |  | 90 | 90 | 100 | 
7 | CCOC(=O)COc1nn(-c2c(F)cccc2F)c(-c2ccc(F)c(F)c2)c1Br [I-134] |  | 90 | 100 | 100 | 100 | 100 |  | 100
8 | CC(C)(Oc1nn(-c2ccccc2)c(-c2ccc(F)cc2)c1Br)C(=O)O [I-140] |  |  | 100 | 90 | 100 | 90 |  | 100
9 | C#CCNC(=O)COc1nn(-c2ccc(F)cc2)c(-c2cccc(F)c2)c1Br [III-016] |  | 90 | 100 | 100 | 100 | 100 |  | 
10 | CCOC(=O)COc1nn(-c2ccccc2F)c(-c2ccc(F)c(F)c2)c1Cl [I-131] | 90 |  | 100 | 100 |  | 100 |  | 90
11 | O=C(COc1nn(-c2ccccc2)c(-c2ccc(F)cc2)c1Br)OCc1cccc(F)c1 [I-111] | 90 | 100 | 90 | 100 | 100 |  |  | 90
12 | C=CCNC(=O)COc1nn(-c2c(F)cccc2F)c(-c2ccc(F)c(F)c2)c1Br [III-054] |  |  | 90 |  |  | 90 | 100 | 
13 | O=C(O)COc1nn(-c2ccc(F)cc2)c(-c2cccc(F)c2)c1Br [I-119] | 90 | 100 | 100 |  | 100 | 100 |  | 90
14 | CCOC(=O)COc1nn(-c2ccc(F)cc2F)c(-c2ccc(F)cc2F)c1Br [I-088] | 90 | 100 | 90 |  | 100 | 90 |  | 100
15 | CCOC(=O)COc1nn(-c2ccccc2F)c(-c2ccc(F)c(F)c2)c1Br [I-133] | 90 | 90 | 100 | 90 | 100 | 100 |  | 100
16 | O=C(COc1nn(-c2ccc(F)cc2)c(-c2cccc(F)c2)c1Cl)NC1CC1 [III-024] |  |  | 100 | 90 | 100 | 100 |  | 
17 | COC(=O)COc1nn(-c2cccc(F)c2)c(-c2ccccc2)c1[N+](=O)[O-] [I-122] |  |  |  | 100 |  | 100 |  | 
18 | COC(=O)COc1nn(-c2ccccc2F)c(-c2ccc(F)s2)c1Br [I-095] | 100 | 100 | 100 |  | 100 | 100 |  | 
19 | CCOC(=O)COc1nn(-c2ccccc2)c(-c2ccc(F)cc2F)c1Br [I-085] | 90 | 100 | 100 | 100 |  | 100 |  | 100
20 | CCOC(=O)COc1nn(-c2ccc(F)cc2)c(-c2ccc(F)cc2)c1Br [I-076] | 90 | 100 | 100 | 90 | 100 | 100 |  | 
21 | CC(Oc1nn(-c2ccccc2F)c(-c2ccc(F)c(F)c2)c1Br)C(=O)O (stereo not shown) [I-168] | 90 |  |  | 90 | 100 | 100 |  | 100
22 | CCOC(=O)COc1nn(-c2c(F)cccc2F)c(-c2ccc(F)c(F)c2)c1Cl [I-142] | 90 |  | 100 | 100 | 100 | 100 |  | 100

From patent US20230066946A1, “1,5-DIPHENYLPYRAZOLYL-3-OXYALKYL ACIDS AND 1-PHENYL-5-THIENYLPYRAZOLYL-3-OXYALKYL ACIDS AND THE USE THEREOF FOR CONTROL OF UNWANTED PLANT GROWTH” (Bayer Aktiengesellschaft, priority 2019, published 2023)
